Molecular target: T1, ERα (Homo sapiens, UniProt P03372)
T1 construct: host or cells: MCF7
T1 sequence (P03372 1-595): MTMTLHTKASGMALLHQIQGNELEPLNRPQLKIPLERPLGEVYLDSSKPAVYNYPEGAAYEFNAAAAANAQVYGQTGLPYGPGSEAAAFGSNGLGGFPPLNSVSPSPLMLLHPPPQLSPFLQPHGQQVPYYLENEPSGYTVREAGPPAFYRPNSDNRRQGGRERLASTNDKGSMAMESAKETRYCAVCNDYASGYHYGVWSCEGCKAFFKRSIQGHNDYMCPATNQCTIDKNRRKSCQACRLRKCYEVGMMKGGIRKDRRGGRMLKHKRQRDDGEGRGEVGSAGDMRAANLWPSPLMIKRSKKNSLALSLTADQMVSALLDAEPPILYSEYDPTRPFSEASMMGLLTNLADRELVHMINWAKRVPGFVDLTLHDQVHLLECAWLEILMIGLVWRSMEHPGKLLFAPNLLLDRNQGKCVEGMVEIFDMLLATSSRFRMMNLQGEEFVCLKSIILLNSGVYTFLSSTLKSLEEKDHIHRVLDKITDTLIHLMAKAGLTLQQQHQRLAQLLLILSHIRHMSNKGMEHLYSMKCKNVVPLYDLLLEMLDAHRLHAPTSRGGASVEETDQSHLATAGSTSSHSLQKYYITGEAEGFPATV
Assay: Estrogen receptor degradation activity: breast cancer cell ERα in cell western assay (MCF7 cells)
Format: cell-based
Details: for % Degradation At 0.3 μM: 4 hours, relative to fulvestrant 0.1 μM positive control; for DC50: 4 hours post compound addition, concentration which degrades 50% of the estrogen receptor, read-out: Degradation IC50
In short: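 Compounds were applied to MCF7 cells in stripped-serum, phenol red-free medium for 4 h at final 0.3–0.0000018 μM, with fulvestrant (0.1 μM) as control. Value: IC50 (nM) for 50% ERα degradation.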

Structure (SMILES) | % Degradation At 0.3 μM [%] | DC50 [nM]
N#Cc1cc2c(cc1C(=O)O)CCCC(c1ccc(Cl)cc1Cl)=C2c1ccc(CC2CN(CCCF)C2)cc1 [Example 245, 2-cyano-8-(2,4-dichlorophenyl)-9-(4-((1-(3-fluoropropyl)azetidin-3-yl)methyl)phenyl)-6,7-dihydro-5H-benzo[7]annulene-3-carboxylic acid] | 100 | 269
O=C(O)c1ccc2c(c1)CCCC(c1cccc3c1CC3)=C2c1ccc(CC2CN(CCCF)C2)cc1 [Example 53, 8-(bicyclo[4.2.0]octa-1(6),2,4-trien-2-yl)-9-(4-((1-(3-fluoropropyl)azetidin-3-yl)methyl)phenyl)-6,7-dihydro-5H-benzo[7]annulene-3-carboxylic acid] | 91 | 0.4
O=C(O)c1ccc2c(c1)CCCC(c1cccc(CC(F)F)c1)=C2c1ccc(CC2CN(CCCF)C2)cc1 [Example 297, 8-(3-(2,2-difluoroethyl)phenyl)-9-(4-((1-(3-fluoropropyl)azetidin-3-yl)methyl)phenyl)-6,7-dihydro-5H-benzo[7]annulene-3-carboxylic acid] | 81 | 0.7
O=C([O-])c1ccc2c(c1)CCCC(C1=C[C@@H]3CCC[C@@H]3C1)=C2c1ccc(CC2CN(CCCF)C2)cc1.[Na+] (relative stereo) [Example 299, sodium 9-(4-((1-(3-fluoropropyl)azetidin-3-yl)methyl)phenyl)-8-(cis-1,3a,4,5,6,6a-hexahydropentalen-2-yl)-6,7-dihydro-5H-benzo[7]annulene-3-carboxylate] | 90 | 0.7
O=C(O)c1ccc2c(c1)CCCC(c1ccccc1CC(F)(F)F)=C2c1ccc(CC2CN(CCCF)C2)cc1 [Example 301, 9-(4-((1-(3-fluoropropyl)azetidin-3-yl)methyl)phenyl)-8-(2-(2,2,2-trifluoroethyl)phenyl)-6,7-dihydro-5H-benzo[7]annulene-3-carboxylic acid] | 89 | 0.5
O=C(O)c1ccc2c(c1)CCCC(c1ccc(Cl)cc1Cl)=C2c1ccc(CC2(O)CN(CCCF)C2)cc1 [Example 233, 8-(2,4-dichlorophenyl)-9-(4-((1-(3-fluoropropyl)-3-hydroxyazetidin-3-yl)methyl)phenyl)-6,7-dihydro-5H-benzo[7]annulene-3-carboxylic acid] | 85 | 0.5
O=C(O)c1ccc2c(c1)CCCC(c1ncc(Cl)cc1C(F)(F)F)=C2c1ccc(CC2CN(CCCF)C2)cc1 [Example 218, 8-(5-chloro-3-(trifluoromethyl)pyridin-2-yl)-9-(4-((1-(3-fluoropropyl)azetidin-3-yl)methyl)phenyl)-6,7-dihydro-5H-benzo[7]annulene-3-carboxylic acid] | 92 | 0.5

Now from value to compound:

% Degradation At 0.3 μM [%] | DC50 [nM] | Structure (SMILES)
90 | 0.5 | O=C(O)c1ccc2c(c1)CCCC(c1ccc(Cl)cc1Cl)=C2c1ccc(C(F)C2CN(CCCF)C2)cc1 (single isomer, unassigned) [Example 44, 8-(2,4-dichlorophenyl)-9-(4-(fluoro(1-(3-fluoropropyl)azetidin-3-yl)methyl)phenyl)-6,7-dihydro-5H-benzo[7]annulene-3-carboxylic acid]
86 | 13.6 | NC(c1ccc(C2=C(c3ccc(Cl)cc3Cl)CCCc3cc(C(=O)O)ccc32)cc1)C1CN(CCCF)C1 (single isomer, unassigned; isomer 2) [Example 244, 9-(4-(Amino(1-(3-fluoropropyl)azetidin-3-yl)methyl)phenyl)-8-(2,4-dichlorophenyl)-6,7-dihydro-5H-benzo[7]annulene-3-carboxylic Acid Isomer 2]
84 | 0.4 | O=C(O)c1ccc2c(c1)CCCC(C1CC3CCC1C3)=C2c1ccc(CC2CN(CCCF)C2)cc1 (mixture of isomers) [Example 307, 8-(bicyclo[2.2.1]heptan-2-yl)-9-(4-((1-(3-fluoropropyl)azetidin-3-yl)methyl)phenyl)-6,7-dihydro-5H-benzo[7]annulene-3-carboxylic acid]
84 | 1.3 | O=C(O)c1ccc2c(c1)CCCC(c1ncc(Cl)cc1Cl)=C2c1ccc(CC2CN(CCCF)C2)cc1 [Example 234, 8-(3,5-dichloropyridin-2-yl)-9-(4-((1-(3-fluoropropyl)azetidin-3-yl)methyl)phenyl)-6,7-dihydro-5H-benzo[7]annulene-3-carboxylic acid]
94 | 0.5 | O=C(O)c1ccc2c(c1)CCCC(c1ccc(Cl)cc1C(F)(F)F)=C2c1ccc(CC2CN(CCCF)C2)cc1 [Example 27, 8-(4-chloro-2-(trifluoromethyl)phenyl)-9-(4-((1-(3-fluoropropyl)azetidin-3-yl)methyl)phenyl)-6,7-dihydro-5H-benzo[7]annulene-3-carboxylic acid]
85 | 1.2 | Oc1c(F)cc2c(c1F)CCCC(c1ccc(Cl)cc1Cl)=C2c1ccc(CC2CN(CCCF)C2)cc1 [Example 305, 8-(2,4-dichlorophenyl)-2,4-difluoro-9-(4-((1-(3-fluoropropyl)azetidin-3-yl)methyl)phenyl)-6,7-dihydro-5H-benzo[7]annulen-3-ol]
91 | 0.2 | O=C(O)c1ccc2c(c1)CCCC(c1ccccc1C(F)(F)F)=C2c1ccc(CC2CN(CCCF)C2)cc1 [Example 23, 9-(4-((1-(3-fluoropropyl)azetidin-3-yl)methyl)phenyl)-8-(2-(trifluoromethyl)phenyl)-6,7-dihydro-5H-benzo[7]annulene-3-carboxylic acid]
87 | 0.4 | CC1CCc2cc(C(=O)O)ccc2C(c2ccc(CC3CN(CCCF)C3)cc2)=C1c1cccc(C(F)(F)F)c1 (racemic) [Example 333, 9-(4-((1-(3-fluoropropyl)azetidin-3-yl)methyl)phenyl)-7-methyl-8-(3-(trifluoromethyl)phenyl)-6,7-dihydro-5H-benzo[7]annulene-3-carboxylic acid]
92 | 0.3 | Cl.O=C(O)c1ccc2c(c1)CCCC(c1cccc(F)c1Cl)=C2c1ccc(CC2CN(CCCF)C2)cc1 [Example 9, 8-(2-chloro-3-fluorophenyl)-9-(4-((1-(3-fluoropropyl)azetidin-3-yl)methyl)phenyl)-6,7-dihydro-5H-benzo[7]annulene-3-carboxylic acid]
